Data as given in patent US20220062205A1, “TREATMENT OF GASTROINTESTINAL DISORDERS AND SYMPTOMS THEREOF” (Indiana University Research and Technology Corporation, priority 2018, published 2022).

What was measured:
Winnie mice [1] = assay: Clinical symptoms (body weight, rectal prolapse, faecal water content) in Winnie mice treated with APX3330; format: in vivo, mouse; conditions: for Daily Body Weight: mean, SEM in line below, in % (unit assumed)
Source text: In this Example, the murine model of IBD named Winnie, in which spontaneous chronic colitis results from a primary intestinal epithelial defect conferred by a mutation in the Muc2 mucin gene, was used to analyze the symptoms of IBD and the effects of treatment with APX3330. Although other models of chronic intestinal inflammation have been developed (e.g., IL-10 knockout), most of them are environment-dependent (attain inflammation only in the presence of pathogenic bacteria). Further, unlike other models, mild spontaneous inflammation in the colorectum is developed in all Winnie mice by 6 weeks of age (young adults) in pathogen-free conditions; it progresses over time and results in severe colitis by the age of 12-16 weeks. This is due to a thinner mucus layer allowing increased intestinal permeability and thus enhanced susceptibility to luminal toxins normally within the gut. In humans, Muc2 production and secretion are reduced leading to a thinner mucosal layer and increased intestinal permeability. Winnie mice (Win/Win) display symptoms of diarrhoea (not watery), ulcerations, rectal bleeding and pain at the acute stages of colitis similar to those in human IBD. The Winnie murine model of chronic colitis (12 w.o.; 15-35 g; n=24) were attained from Victoria University Werribee Animal Facility (Melbourne, Australia) to determine the effectiveness of APX3330 on mechanisms of oxidative stress. Treated Winnie mice were paralleled to a control C57BL/6 group (12 w.o.; 20-30 g; n=12) inclusive of female and male mice. All mice were acclimatized for 3 days prior to receiving in vivo intraperitoneal (IP) injections. All mice were housed at Western Centre for Health, Research and Education (WCHRE, Melbourne, Victoria, Australia) in a temperature-controlled environment with a 12-hour day/night cycle. All animals had free access to food and water with […] efforts made to minimize any suffering. All experimental procedures in this Example were conducted in agreement to the Australian National Health and Medical Research Council (NHMRC) guidelines and approved by Victorian University Animal Experimentation Ethic Committee (AEEC) under animal ethics AEETH 13/001 and AEC 17/016. The small molecular APE1/Ref-1 antagonist; APX3330, was administered via IP injections in Winnie mice at a dose of 25 mg/kg (30 G needle, max volume 200 μl) dissolved in Cremphore (2%) (Sigma-Aldrich): Ethanol (2%) in sterile water (96%). Mice received alternating IP injections twice a day with 12-hour intervals, over the course of two weeks during predominate intestinal inflammation. Winnie-sham treated mice received vehicle injections excluding APX3330 drugs. All mice were monitored, weighed and faecal pellets were collected over the course of treatment.

Winnie mice [2] = assay: Gastrointestinal transit of barium sulfate by X-ray imaging; format: in vivo, mouse; conditions: 25 mg/kg IP twice a day
Method: The small molecular APE1/Ref-1 antagonist; APX3330, was administered via IP injections in Winnie mice at a dose of 25 mg/kg (30 G needle, max volume 200 μl) dissolved in Cremphore (2%) (Sigma-Aldrich): Ethanol (2%) in sterile water (96%). Mice received alternating IP injections twice a day with 12-hour intervals, over the course of two weeks during predominate intestinal inflammation. Winnie-sham treated mice received vehicle injections excluding APX3330 drugs. All mice were monitored, weighed and faecal pellets were collected over the course of treatment. GI transit was acquired via a non-invasive radiological method. Briefly, control C57BL/6, Winnie-sham treated and Winnie-APX3330 treated mice received an administration of barium sulfate (2.5 mg/mL; max volume of 200 μl; X-OPAQUE-HD) via oral gavage. Sequential x-rays were attained by HiRay Plus Porta610HF x-ray apparatus (JOC Corp, Kanagawa, Japan; 50 kV, 0.3 mAs, exposure time 60 ms) immediately post Barium sulfate administration (0 min), every 5 minutes for the first hour, 10 minutes for the second hour and then every 20 minutes through to 250 minutes. Fujifilm FCR Capsule XL11 and analysed on eFilm 4.2.0 software developed images. Parameters of GI transit were measured by time (mins) to determine contrast passing through whole GI tract (whole transit time), stomach to caecum (oro-cecal transit time; OCTT), leaving caecum to anus (colonic transit time; CTT) and caecum retention time.

CCCCCCCCCC(=CC1=C(C)C(=O)C(OC)=C(OC)C1=O)C(=O)O [APX3330] was tested, and the “Daily Body Weight” value (Winnie mice [1]; Day 1, relative to initial weight, 25 mg/kg IP twice a day) was 102, the “Daily Body Weight” value (Winnie mice [1]; Day 2, relative to initial weight, 25 mg/kg IP twice a day) was 100 and the “Daily Body Weight” value (Winnie mice [1]; Day 3, relative to initial weight, 25 mg/kg IP twice a day) was 101. For the same compound, the “Daily Body Weight” value (Winnie mice [1]; Day 4, relative to initial weight, 25 mg/kg IP twice a day) was 101, the “Daily Body Weight” value (Winnie mice [1]; Day 5, relative to initial weight, 25 mg/kg IP twice a day) was 100 and the “Daily Body Weight” value (Winnie mice [1]; Day 6, relative to initial weight, 25 mg/kg IP twice a day) was 100. For the same compound, the “Daily Body Weight” value (Winnie mice [1]; Day 7, relative to initial weight, 25 mg/kg IP twice a day) was 98, the “Daily Body Weight” value (Winnie mice [1]; Day 8, relative to initial weight, 25 mg/kg IP twice a day) was 98 and the “Daily Body Weight” value (Winnie mice [1]; Day 9, relative to initial weight, 25 mg/kg IP twice a day) was 98. The “Daily Body Weight” value (Winnie mice [1]; Day 10, relative to initial weight, 25 mg/kg IP twice a day) was 99, the “Daily Body Weight” value (Winnie mice [1]; Day 11, relative to initial weight, 25 mg/kg IP twice a day) was 99 and the “Daily Body Weight” value (Winnie mice [1]; Day 12, relative to initial weight, 25 mg/kg IP twice a day) was 99. The “Daily Body Weight” value (Winnie mice [1]; Day 13, relative to initial weight, 25 mg/kg IP twice a day) was 99, the “rectal prolapse, edema and bleeding” value (Winnie mice [1]; by day 14 of treatments, 25 mg/kg IP twice a day) was “reduced” and the faecal water content (Winnie mice [1]; day 14, 25 mg/kg IP twice a day, mean±SEM, n=7) was 73.2±2.1%. The “retention time in the cecum” value (Winnie mice [2]; Winnie mice, mean±SEM) was 86.4 ± 17.8 min, the total transit time (Winnie mice [2]; Winnie mice, mean±SEM) was 173.3 ± 24.6 min and the “oro-caecal transit time (OCTT)” value (Winnie mice [2]; between experimental groups, Winnie mice) was “No changes”. For the same compound, the “colonic transit time (CTT)” value (Winnie mice [2]; compared to Winnie-sham treated mice) was “improved”.
